Results as given in PubChem BioAssay AID270 (DTP/NCI, 2004).
Several values for one entry are separate records, joined by “and”; a condition that tells them apart may be missing. Identical values can stand only once. Results filed as inconclusive are left out.

Tested on: BDF1 mice, s.c. Lewis lung carcinoma, T/C %
Assay: NCI In Vivo Anticancer Drug Screen. Data for tumor model Lewis Lung Carcinoma (subcutaneous) in B6D2F1 (BDF1) mice
How it was run: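 The value reflects a ratio in which the treated cohort's survival time or tumour size is compared against mice receiving only vehicle.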

How did the T/C (endpoint: mean survival time, dose: 4.0 mg/kg/injection, schedule: Q01DX009 (ip), vehicle: saline, higher = longer survival) turn out when Cc1c(N)nc([C@H](CC(N)=O)NC[C@H](N)C(N)=O)nc1C(=O)N[C@H](C(=O)N[C@H](C)[C@@H](O)[C@H](C)C(=O)N[C@H](C(=O)NCCc1nc(-c2nc(C(=O)NCCC[S+](C)C)cs2)cs1)[C@@H](C)O)C(OC1OC(CO)C(O)C(O)C1OC1OC(CO)C(O)C(OC(N)=O)C1O)c1cnc[nH]1 (stereo not given in full) was run?
The T/C was 111 % of control.

What about the T/C (endpoint: mean survival time, dose: 8.0 mg/kg/injection, schedule: Q01DX009 (ip), vehicle: saline, higher = longer survival) of the same molecule?
Its T/C is 102 % of control.

What about the T/C (endpoint: mean survival time, dose: 12.0 mg/kg/injection, schedule: Q01DX009 (ip), vehicle: saline, higher = longer survival) of the same molecule?
Its T/C is 107 % of control.

And the T/C (endpoint: median survival time, dose: 1.0 mg/kg/injection, schedule: Q01DX009 (ip), vehicle: water, higher = longer survival)?
Its T/C is 90 % of control.

What about the T/C (endpoint: median survival time, dose: 1.7 mg/kg/injection, schedule: Q01DX009 (ip), vehicle: water, higher = longer survival) of the same molecule?
The T/C was 94 % of control.

What about the T/C (endpoint: median survival time, dose: 2.0 mg/kg/injection, schedule: Q01DX009 (ip), vehicle: saline, higher = longer survival) of the same molecule?
Its T/C is 107 % of control.

And the T/C (endpoint: median survival time, dose: 2.0 mg/kg/injection, schedule: Q01DX009 (ip), vehicle: water, higher = longer survival)?
The T/C was 112 % of control.

And the T/C (endpoint: median survival time, dose: 2.9 mg/kg/injection, schedule: Q01DX009 (ip), vehicle: water, higher = longer survival)?
Its T/C is 94 % of control.

What about the T/C (endpoint: median survival time, dose: 3.12 mg/kg/injection, schedule: Q04DX003 (sc), vehicle: saline, higher = longer survival) of the same molecule?
Its T/C is 90 % of control and 92 % of control.

What about the T/C (endpoint: median survival time, dose: 4.0 mg/kg/injection, schedule: Q01DX009 (ip), vehicle: water, higher = longer survival) of the same molecule?
Its T/C is 94 % of control and 118 % of control.

And the T/C (endpoint: median survival time, dose: 4.0 mg/kg/injection, schedule: Q04DX003 (ip), vehicle: saline, higher = longer survival)?
Its T/C is 96 % of control and 110 % of control.

What about the T/C (endpoint: median survival time, dose: 4.8 mg/kg/injection, schedule: Q01DX009 (ip), vehicle: water, higher = longer survival) of the same molecule?
Its T/C is 118 % of control.

What about the T/C (endpoint: median survival time, dose: 6.25 mg/kg/injection, schedule: Q04DX003 (sc), vehicle: saline, higher = longer survival) of the same molecule?
Its T/C is 96 % of control.

And the T/C (endpoint: median survival time, dose: 8.0 mg/kg/injection, schedule: Q01DX009 (ip), vehicle: water, higher = longer survival)?
Its T/C is 102 % of control and 112 % of control.

What about the T/C (endpoint: median survival time, dose: 8.0 mg/kg/injection, schedule: Q04DX003 (ip), vehicle: saline, higher = longer survival) of the same molecule?
Its T/C is 96 % of control and 114 % of control.

What about the T/C (endpoint: median survival time, dose: 12.0 mg/kg/injection, schedule: Q01DX009 (ip), vehicle: saline, higher = longer survival) of the same molecule?
The T/C was 100 % of control.

What about the T/C (endpoint: median survival time, dose: 12.5 mg/kg/injection, schedule: Q04DX003 (sc), vehicle: saline, higher = longer survival) of the same molecule?
The T/C was 102 % of control and 108 % of control.

What about the T/C (endpoint: median survival time, dose: 16.0 mg/kg/injection, schedule: Q04DX003 (ip), vehicle: saline, higher = longer survival) of the same molecule?
The T/C was 84 % of control and 112 % of control.

What about the T/C (endpoint: median survival time, dose: 22.2 mg/kg/injection, schedule: Q01DX009 (ip), vehicle: water, higher = longer survival) of the same molecule?
Its T/C is 82 % of control.

And the T/C (endpoint: median survival time, dose: 25.0 mg/kg/injection, schedule: Q04DX003 (sc), vehicle: saline, higher = longer survival)?
Its T/C is 98 % of control.

And the T/C (endpoint: median survival time, dose: 32.0 mg/kg/injection, schedule: Q04DX003 (ip), vehicle: saline, higher = longer survival)?
Its T/C is 50 % of control and 108 % of control.

And the T/C (endpoint: median survival time, dose: 50.0 mg/kg/injection, schedule: Q04DX003 (sc), vehicle: saline, higher = longer survival)?
Its T/C is 117 % of control and 118 % of control.

And the T/C (endpoint: median survival time, dose: 64.0 mg/kg/injection, schedule: Q04DX003 (ip), vehicle: saline, higher = longer survival)?
The T/C was 37 % of control and 97 % of control.

And the T/C (endpoint: median survival time, dose: 100.0 mg/kg/injection, schedule: Q04DX003 (sc), vehicle: saline, higher = longer survival)?
Its T/C is 116 % of control and 124 % of control.

What about the T/C (endpoint: median tumor weight (est.), dose: 2.0 mg/kg/injection, schedule: Q01DX009 (ip), vehicle: saline, higher = larger tumour) of the same molecule?
The T/C was 71 % of control.

And the T/C (endpoint: median tumor weight (est.), dose: 2.0 mg/kg/injection, schedule: Q01DX009 (ip), vehicle: water, higher = larger tumour)?
Its T/C is 34 % of control.

What about the T/C (endpoint: median tumor weight (est.), dose: 4.0 mg/kg/injection, schedule: Q01DX009 (ip), vehicle: saline, higher = larger tumour) of the same molecule?
The T/C was 77 % of control.

What about the T/C (endpoint: median tumor weight (est.), dose: 4.0 mg/kg/injection, schedule: Q01DX009 (ip), vehicle: water, higher = larger tumour) of the same molecule?
The T/C was 24 % of control.

And the T/C (endpoint: median tumor weight (est.), dose: 8.0 mg/kg/injection, schedule: Q01DX009 (ip), vehicle: saline, higher = larger tumour)?
The T/C was 34 % of control.

And the T/C (endpoint: median tumor weight (est.), dose: 8.0 mg/kg/injection, schedule: Q01DX009 (ip), vehicle: water, higher = larger tumour)?
The T/C was 8 % of control.

What about the T/C (endpoint: median tumor weight (est.), dose: 16.0 mg/kg/injection, schedule: Q01DX009 (ip), vehicle: saline, higher = larger tumour) of the same molecule?
Its T/C is 26 % of control.

How did the T/C (endpoint: median survival time, dose: 50.0 mg/kg/injection, schedule: Q01DX009 (ip), vehicle: saline with Tween-80, higher = longer survival) turn out when Nc1cc2nc3ccccc3sc-2cc1=O was run?
Its T/C is 104 % of control.

And the T/C (endpoint: median survival time, dose: 100.0 mg/kg/injection, schedule: Q01DX009 (ip), vehicle: saline with Tween-80, higher = longer survival)?
Its T/C is 90 % of control.

Which T/C (endpoint: median survival time, dose: 2.0 mg/kg/injection, schedule: Q01DX011 (ip), vehicle: other, higher = longer survival) does the source give for COC12C(COC(N)=O)C3=C(C(=O)C(C)=C(N)C3=O)N1CC1C2N1C (stereo not given) here?
The T/C was 98 % of control.

What about the T/C (endpoint: median survival time, dose: 4.0 mg/kg/injection, schedule: Q01DX011 (ip), vehicle: other, higher = longer survival) of the same molecule?
Its T/C is 96 % of control.
